According to patent US11273217B2, “Cancer treatment composition combining anti-CD26 antibody and other anticancer agent” (Y's AC Co., Ltd., priority 2015, dated 2022):

Key:
JMN cells [1] = assay: MTT cell growth assay, JMN; format: cell-based; settings: gemcitabine 3×10^−10, 10^−9, or 3×10^−8 M and YS110 1, 3, or 10 μg/ml; day 2
Method: Gemcitabine was studied for its effect on the growth of a mesothelioma cell line. A mesothelioma cell line MESO1, JMN, H2452, or H226 (2×10^3 cells/well) was inoculated to a 96-well plate. One hour later, gemcitabine (10^−9, 10^−8, 10^−7, 10^−6, 10^−5, or 10^−4 M) was added thereto (N=6). 2 days later, MTT assay was conducted. Significant difference was tested by two-tailed t-test (vs Cont).
JMN cells (2×10^3 cells/well) were inoculated to a 96-well plate. One hour later, gemcitabine (0, 3×10^−10, 10^−9, or 3×10^−8 M) and YS110 (0, 1, 3, or 10 μg/ml) were added thereto in combination. At day 2, MTT assay was conducted. Significant difference was tested by two-tailed t-test (vs Cont). Next, interaction in concomitant use of medications was studied (n=6). The interaction between YS110 and gemcitabine used concomitantly was analyzed by two-way ANOVA.
MESO1, JMN, H2452 or H226 cells (2×10^3 cells/well were inoculated to a 96-well plate. One hour later, 3×10^−8 M or 10^−7 M gemcitabine was added thereto by concomitant use with the combination of cisplatin (0, 0.1, 0.3, or 1 μM) and pemetrexed (0, 0.03, 0.1, or 0.3 μM) (n=6). At day 2, MTT assay was conducted.
The growth inhibitory effects of cisplatin (10^−9 to 10^−4 M) and pemetrexed (10^−9 to 10^−4 M) were compared using the MESO1 and JMN cell lines.
The growth inhibitory effect of gemcitabine (10^−9 to 10^−4 M) was compared using MESO1, H2452, JMN, and H226 cell lines.

JMN cells [2] = assay: In vivo JMN cell growth in SCID mice (tumor weight); settings: YS110 10 mg/kg, intraperitoneal
H2452 cells [3] = assay: In vivo H2452 cell growth in SCID mice (tumor weight); settings: YS110 10 mg/kg, cisplatin 0.5 mg/kg, pemetrexed 50 mg/kg, intraperitoneal, days 1 and 4; tumor weight day 7
Method: H2452 cells (3×10^5 cells/animal) were subcutaneously transplanted to the backs of female SCID mice. The day of transplantation was defined as day 0. YS110 (10 mg/kg) alone, cisplatin (0.5 mg/kg)-pemetrexed (50 mg/kg) used concomitantly, or YS110 (10 mg/kg) used concomitantly with the cisplatin-pemetrexed concomitant use was intraperitoneally administered to the mice twice (days 1 and 4). At day 7, their tumors were excised, and the tumor weights were measured. Significant difference was tested by two-tailed t-test (vs Cont).

MESO1 cells = assay: Boyden chamber invasion assay, MESO1; format: cell-based; settings: cisplatin 0, 3, or 10 μM and YS110 0, 10, or 20 μg/ml; 24 hours
Method: (§1) MESO1 cells or H2452 cells (2.5×10^4 cells/well) were inoculated to a Boyden chamber. One hour later, cisplatin (5, 10, or 30 μM) or pemetrexed (1, 10, or 30 μM) was added thereto (n=5), followed by Boyden chamber invasion assay. 24 hours after the cell inoculation, invasive cells were stained with Diff-Quik-staining kit. Significant difference was tested by two-tailed t-test (vs Cont).
(§2) MESO1 cells or H2452 cells (2.5×10^4 cells/well) were inoculated to a Boyden chamber. One hour later, the combination of cisplatin (0, 3, or 10 μM) and pemetrexed (0, 10, or 30 μM) was added thereto (n=5), followed by Boyden chamber invasion assay. 24 hours after the cell inoculation, invasive cells were stained with Diff-Quik-staining kit. Significant difference was tested by two-tailed t-test (vs Cont).
as §2, with “MESO1” for “MESO1 cells or H2452”, “YS110” for “pemetrexed”, “20 μg/ml)” for “30 μM)”, “Cont). Next, the interaction of YS110 with cisplatin-pemetrexed concomitant use was studied. The interaction was analyzed by two-way ANOVA.” for “Cont).”

H2452 cells [4] = assay: Boyden chamber invasion assay, H2452; format: cell-based; settings: cisplatin 0, 3, or 10 μM and YS110 0, 10, or 20 μg/ml; 24 hours
Method: as §1, §2
as §2, with “H2452” for “MESO1 cells or H2452”, “YS110” for “pemetrexed”, “20 μg/ml)” for “30 μM)”, “Cont). Next, the interaction of YS110 with cisplatin-pemetrexed concomitant use was studied. The interaction was analyzed by two-way ANOVA.” for “Cont).”

HCC827 cells = assay: In vivo growth of CD26-positive lung cancer cell line HCC827 in SCID mice (tumor weight); settings: days 1 and 4, day 7
Method: HCC827 cells (1.8×10^5 cells/animal) were subcutaneously transplanted to the backs of female SCID mice. The day of transplantation was defined as day 0. At day 1, YS110 (10 mg/kg) alone, cisplatin (0.5 mg/kg)+pemetrexed (50 mg/kg), or YS110 (10 mg/kg)+cisplatin (0.5 mg/kg)+pemetrexed (50 mg/kg) was intraperitoneally administered to the mice. At day 4, the same amount of the same drug was administered by the same method as in day 1 (n=6). At day 7, their tumors were excised, and the tumor weights were measured. Significant difference was tested by two-tailed t-test (vs Cont).
HCC827 cells (0.9×10^5 cells/animal) were subcutaneously transplanted to the backs of female SCID mice. The day of transplantation was defined as day 0. YS110 (10 mg/kg, intraperitoneal administration), gefitinib (100 mg/kg, oral administration), or YS110 (10 mg/kg, intraperitoneal administration)+gefitinib (100 mg/kg, oral administration) was administered to the mice twice (days 1 and 4). At day 7, their tumors were excised, and the tumor weights were measured. Significant difference was tested by two-tailed t-test (vs Cont).

[5] = system: CD26-positive malignant mesothelioma cell line JMN; settings: mouse, in vivo
Method: NOD/SCID (NOD/LtSz-scid) mice were maintained in a microisolator cage within a specific pathogen-free (SPF) facility and allowed to freely take sterilized diet and sterilized water.
1×10^7 cultured JMN cells were subcutaneously administered to 6- to 8-week-old female NOD/SCID mice. […] The same amount of PBS was administered to the control group. When a tumor became evidently visible, the tumor was excised, and its size was measured with a vernier caliper. The estimated tumor volume was determined by calculation according to the expression: π/6×L×W×W (Tomayko M M et al., Cancer Chemother Pharmacol. (1989) 24: 148-54). The statistical difference among the average tumor volumes of these groups were determined by Fisher's protected least-square differences (PLSD) multiple comparison test. Statistical analysis was conducted using SPSS software (IBM, Armonk, N.Y.).

[6] = in vivo; cited from earlier work

Substance: YS110: humanized anti-CD26 antibody designed based on anti-CD26 mouse antibody 14D10; SEQ ID NO: 17 and 18
- effect of YS110 on the growth inhibitory effect of gemcitabine (JMN cells [1]): potentiated
- effect of YS110 on the in vivo tumor growth inhibitory effect of cisplatin (JMN cells [2]; cisplatin 0.5 mg/kg, days 1 and 4, tumor weight day 7): potentiated
- effect of YS110 on the in vivo tumor growth inhibitory effect of cisplatin-pemetrexed (JMN cells [2]; cisplatin 0.5 mg/kg, pemetrexed 50 mg/kg, days 1 and 4, tumor weight day 7): potentiated
- inhibitory effect (tumor weight) (JMN cells [2]; gemcitabine 10 mg/kg, days 2 and 4, day 7): 34%
- effect of YS110 on the in vivo tumor growth inhibitory effect of pemetrexed (JMN cells [2]; pemetrexed 50 mg/kg, days 1 and 4, tumor weight day 7): potentiated
- effect of YS110 on the in vivo tumor growth inhibitory effect of cisplatin-pemetrexed (H2452 cells [3]): potentiated
- effect of YS110 on the cell invasion inhibitory action of cisplatin-pemetrexed (MESO1 cells): potentiated
- effect of YS110 on the cell invasion inhibitory action of cisplatin-pemetrexed (H2452 cells [4]): synergistically potentiated
- effect of YS110 on the effect of gefitinib (tumor weight) (HCC827 cells; YS110 10 mg/kg intraperitoneal, gefitinib 100 mg/kg oral): potentiated
- effect of YS110 on the effect of cisplatin-pemetrexed (tumor weight) (HCC827 cells; YS110 10 mg/kg, cisplatin 0.5 mg/kg, pemetrexed 50 mg/kg, intraperitoneal): potentiated
- average body weight of the mice compared among the groups [5]: did not remarkably differ
- safety in phase I clinical trial [6]: demonstrated its safety
